How the values were obtained:
[1] = tested on: THP-1; assay: Cytotoxicity against human THP1 cells after 48 hrs by SRB assay; assay type: functional, cell-based; details: THP-1, 48 h
[2] = tested on: PC-3; assay: Cytotoxicity against human PC3 cells after 48 hrs by SRB assay; assay type: functional, cell-based; details: PC-3, 48 h
[3] = tested on: DU-145; assay: Cytotoxicity against human DU145 cells after 48 hrs by SRB assay; assay type: functional, cell-based; details: DU-145, 48 h
[4] = tested on: HL-60; assay: Cytotoxicity against human HL60 cells at 50 uM after 48 hrs by SRB assay; assay type: functional; details: HL-60, 48 h, read-out: GI
[5] = tested on: HEp-2; assay: Cytotoxicity against human Hep2 cells at 10 uM after 48 hrs by SRB assay; assay type: functional; details: HEp-2, 48 h, read-out: GI
[6] = tested on: SF-295; assay: Cytotoxicity against human SF295 cells at 30 uM after 48 hrs by SRB assay; assay type: functional; details: SF-295, 48 h, read-out: GI
[7] = tested on: DU-145; assay: Cytotoxicity against human DU145 cells at 30 uM after 48 hrs by SRB assay; assay type: functional; details: DU-145, 48 h, read-out: GI
[8] = tested on: PC-3; assay: Cytotoxicity against human PC3 cells at 30 uM after 48 hrs by SRB assay; assay type: functional; details: PC-3, 48 h, read-out: GI
[9] = tested on: A549; assay: Cytotoxicity against human A549 cells at 50 uM after 48 hrs by SRB assay; assay type: functional; details: A549, 48 h, read-out: GI
[10] = tested on: MCF7; assay: Cytotoxicity against human MCF7 cells after 48 hrs by SRB assay; assay type: functional, cell-based; details: MCF7, 48 h
[11] = tested on: THP-1; assay: Cytotoxicity against human THP1 cells at 10 uM after 48 hrs by SRB assay; assay type: functional; details: THP-1, 48 h, read-out: GI
[12] = tested on: HL-60; assay: Cytotoxicity against human HL60 cells at 30 uM after 48 hrs by SRB assay; assay type: functional; details: HL-60, 48 h, read-out: GI
[13] = tested on: HEp-2; assay: Cytotoxicity against human Hep2 cells at 30 uM after 48 hrs by SRB assay; assay type: functional; details: HEp-2, 48 h, read-out: GI
[14] = tested on: THP-1; assay: Cytotoxicity against human THP1 cells at 30 uM after 48 hrs by SRB assay; assay type: functional; details: THP-1, 48 h, read-out: GI
[15] = tested on: HEp-2; assay: Cytotoxicity against human Hep2 cells after 48 hrs by SRB assay; assay type: functional, cell-based; details: HEp-2, 48 h
[16] = tested on: HCT-15; assay: Cytotoxicity against human HCT15 cells at 50 uM after 48 hrs by SRB assay; assay type: functional; details: HCT-15, 48 h, read-out: GI
[17] = tested on: SF-295; assay: Cytotoxicity against human SF295 cells at 50 uM after 48 hrs by SRB assay; assay type: functional; details: SF-295, 48 h, read-out: GI
[18] = tested on: HL-60; assay: Cytotoxicity against human HL60 cells at 10 uM after 48 hrs by SRB assay; assay type: functional; details: HL-60, 48 h, read-out: GI
[19] = tested on: A549; assay: Cytotoxicity against human A549 cells at 10 uM after 48 hrs by SRB assay; assay type: functional; details: A549, 48 h, read-out: GI
[20] = tested on: DU-145; assay: Cytotoxicity against human DU145 cells at 10 uM after 48 hrs by SRB assay; assay type: functional; details: DU-145, 48 h, read-out: GI
[21] = tested on: MCF7; assay: Cytotoxicity against human MCF7 cells at 10 uM after 48 hrs by SRB assay; assay type: functional; details: MCF7, 48 h, read-out: GI
[22] = tested on: HCT-15; assay: Cytotoxicity against human HCT15 cells after 48 hrs by SRB assay; assay type: functional, cell-based; details: HCT-15, 48 h
[23] = tested on: MCF7; assay: Cytotoxicity against human MCF7 cells at 50 uM after 48 hrs by SRB assay; assay type: functional; details: MCF7, 48 h, read-out: GI
[24] = tested on: SF-295; assay: Cytotoxicity against human SF295 cells at 10 uM after 48 hrs by SRB assay; assay type: functional; details: SF-295, 48 h, read-out: GI
[25] = tested on: HCT-15; assay: Cytotoxicity against human HCT15 cells at 30 uM after 48 hrs by SRB assay; assay type: functional; details: HCT-15, 48 h, read-out: GI
[26] = tested on: SF-295; assay: Cytotoxicity against human SF295 cells after 48 hrs by SRB assay; assay type: functional, cell-based; details: SF-295, 48 h
[27] = tested on: A549; assay: Cytotoxicity against human A549 cells at 30 uM after 48 hrs by SRB assay; assay type: functional; details: A549, 48 h, read-out: GI
[28] = tested on: HEp-2; assay: Cytotoxicity against human Hep2 cells at 50 uM after 48 hrs by SRB assay; assay type: functional; details: HEp-2, 48 h, read-out: GI
[29] = tested on: THP-1; assay: Cytotoxicity against human THP1 cells at 50 uM after 48 hrs by SRB assay; assay type: functional; details: THP-1, 48 h, read-out: GI
[30] = tested on: A549; assay: Cytotoxicity against human A549 cells after 48 hrs by SRB assay; assay type: functional, cell-based; details: A549, 48 h
[31] = tested on: HCT-15; assay: Cytotoxicity against human HCT15 cells at 10 uM after 48 hrs by SRB assay; assay type: functional; details: HCT-15, 48 h, read-out: GI
[32] = tested on: MCF7; assay: Cytotoxicity against human MCF7 cells at 30 uM after 48 hrs by SRB assay; assay type: functional; details: MCF7, 48 h, read-out: GI
[33] = tested on: DU-145; assay: Cytotoxicity against human DU145 cells at 50 uM after 48 hrs by SRB assay; assay type: functional; details: DU-145, 48 h, read-out: GI
[34] = tested on: PC-3; assay: Cytotoxicity against human PC3 cells at 10 uM after 48 hrs by SRB assay; assay type: functional; details: PC-3, 48 h, read-out: GI
[35] = tested on: HL-60; assay: Cytotoxicity against human HL60 cells after 48 hrs by SRB assay; assay type: functional, cell-based; details: HL-60, 48 h
[36] = tested on: PC-3; assay: Cytotoxicity against human PC3 cells at 50 uM after 48 hrs by SRB assay; assay type: functional; details: PC-3, 48 h, read-out: GI

Compound | IC50 [1] | IC50 [2] | IC50 [3] | inhibition of growth at 50 µM [4] | inhibition of growth at 10 µM [5] | inhibition of growth at 30 µM [6] | inhibition of growth at 30 µM [7] | inhibition of growth at 30 µM [8] | inhibition of growth at 50 µM [9] | IC50 [10] | inhibition of growth at 10 µM [11] | inhibition of growth at 30 µM [12] | inhibition of growth at 30 µM [13] | inhibition of growth at 30 µM [14] | IC50 [15] | inhibition of growth at 50 µM [16] | inhibition of growth at 50 µM [17] | inhibition of growth at 10 µM [18] | inhibition of growth at 10 µM [19] | inhibition of growth at 10 µM [20] | also measured
C=C(C)[C@@H]1CC[C@]2(C(=O)O)CC[C@]3(C)[C@H](CC[C@@H]4[C@@]5(C)CC[C@H](OCc6cn(-c7cccc(OC)c7)nn6)C(C)(C)[C@@H]5CC[C@]43C)[C@@H]12 | 47 µM | > 50 µM | > 50 µM | 60% | 30% | 48% | 18% | 10% | 45% | 12 µM | 17% | 45% | 56% | 41% | 29 µM | 84% | 55% | 20% | 34% | 17% | inhibition of growth at 10 µM [21]: 46%; IC50 [22]: 26 µM; inhibition of growth at 50 µM [23]: 75%; inhibition of growth at 10 µM [24]: 15%; inhibition of growth at 30 µM [25]: 53%; IC50 [26]: 32 µM; inhibition of growth at 30 µM [27]: 38%; inhibition of growth at 50 µM [28]: 57%; inhibition of growth at 50 µM [29]: 54%; IC50 [30]: > 50 µM; inhibition of growth at 10 µM [31]: 23%; inhibition of growth at 30 µM [32]: 59%; inhibition of growth at 50 µM [33]: 30%; inhibition of growth at 10 µM [34]: 4%; IC50 [35]: 37 µM; inhibition of growth at 50 µM [36]: 28%
C=C(C)[C@@H]1CC[C@]2(C(=O)O)CC[C@]3(C)[C@H](CC[C@@H]4[C@@]5(C)CC[C@H](OCc6cn(-c7ccc8c(c7)OCO8)nn6)C(C)(C)[C@@H]5CC[C@]43C)[C@@H]12 | 34 µM | 43 µM | 30 µM | 61% | 9% | 55% | 50% | 32% | 40% | 13 µM | 33% | 50% | 56% | 46% | 26 µM | 50% | 65% | 41% | 22% | 10% | inhibition of growth at 10 µM [21]: 47%; IC50 [22]: 50 µM; inhibition of growth at 50 µM [23]: 82%; inhibition of growth at 10 µM [24]: 36%; inhibition of growth at 30 µM [25]: 36%; IC50 [26]: 18 µM; inhibition of growth at 30 µM [27]: 40%; inhibition of growth at 50 µM [28]: 67%; inhibition of growth at 50 µM [29]: 52%; IC50 [30]: > 50 µM; inhibition of growth at 10 µM [31]: 22%; inhibition of growth at 30 µM [32]: 68%; inhibition of growth at 50 µM [33]: 91%; inhibition of growth at 10 µM [34]: 2%; IC50 [35]: 30 µM; inhibition of growth at 50 µM [36]: 61%
C=C(C)[C@@H]1CC[C@]2(C(=O)O)CC[C@]3(C)[C@H](CC[C@@H]4[C@@]5(C)CC[C@H](OCc6cn(-c7ccc(CC#N)cc7)nn6)C(C)(C)[C@@H]5CC[C@]43C)[C@@H]12 | 12 µM | 32 µM | 23 µM | 98% | 45% | 81% | 61% | 48% | 60% | 12 µM | 43% | 96% | 69% | 95% | 13 µM | 56% | 83% | 46% | 32% | 30% | inhibition of growth at 10 µM [21]: 42%; IC50 [22]: 46 µM; inhibition of growth at 50 µM [23]: 99%; inhibition of growth at 10 µM [24]: 44%; inhibition of growth at 30 µM [25]: 27%; IC50 [26]: 13 µM; inhibition of growth at 30 µM [27]: 57%; inhibition of growth at 50 µM [28]: 71%; inhibition of growth at 50 µM [29]: 96%; IC50 [30]: 25 µM; inhibition of growth at 10 µM [31]: 17%; inhibition of growth at 30 µM [32]: 98%; inhibition of growth at 50 µM [33]: 68%; inhibition of growth at 10 µM [34]: 42%; IC50 [35]: 11 µM; inhibition of growth at 50 µM [36]: 64%

From ChEMBL document CHEMBL2380302, “Synthesis of 3-O-propargylated betulinic acid and its 1,2,3-triazoles as potential apoptotic agents” (Eur J Med Chem, 2013)
